The target in this assay is T1, His-hMAGL (recombinant polyhistidine tagged human MAGL protein) (Homo sapiens, UniProt Q99685).
T1 construct: made in house; host or cells: E. coli BL21(DE3)
T1 sequence (Q99685 1-303): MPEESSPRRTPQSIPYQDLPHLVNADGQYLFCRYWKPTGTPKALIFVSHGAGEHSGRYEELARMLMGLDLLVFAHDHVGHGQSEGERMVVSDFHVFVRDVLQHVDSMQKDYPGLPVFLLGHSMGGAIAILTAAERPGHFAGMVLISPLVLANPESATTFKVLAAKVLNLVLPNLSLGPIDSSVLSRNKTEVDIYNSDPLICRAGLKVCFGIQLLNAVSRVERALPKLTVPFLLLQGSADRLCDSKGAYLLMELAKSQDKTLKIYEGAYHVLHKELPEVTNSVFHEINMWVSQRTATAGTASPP
The assay can be described thus: Measurement of MAGL inhibitory activity (arachidonic acid production from 2-arachidonylglycerol, RapidFire-mass spectrometry). The settings on record: MAGL inhibitory rate, test compound 10 μM, 60 min preincubation, 2-arachidonylglycerol substrate. Format: biochemical. The method in brief:
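Arachidonic acid formed was quantified by online solid-phase extraction and triple-quadrupole MS in negative SRM mode against a d8 internal standard. Reaction: recombinant His-hMAGL (7.5 ng/mL, pH 7.5 Tris buffer with Triton X-100 and BSA) plus 2-AG (5 μL of 150 μM stock) for 10 min at room temperature, quenched with 2% formic acid. Percent inhibition corrected for enzyme-free background.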

This note sets out measurements from patent publication US10610520B2, “Heterocyclic compound” (Takeda Pharmaceutical Company Limited, priority 2016, dated 2020).

Structures are written as SMILES.

In the case of `CC(C)c1ccc(-c2ccc3c(Cl)c(C(=O)N4CC5(CCC(=O)N5)C4)sc3c2)cc1` [Example 187, 2-((3-chloro-6-(4-isopropylphenyl)-1-benzothiophen-2-yl)carbonyl)-2,5-diazaspiro[3.4]octan-6-one], the inhibition at 10 µM was determined as 94%. Consider `CC(C)c1cccc(-c2ccc3c(Cl)c(C(=O)N4CC5(CCC(=O)N5)C4)sc3c2)c1` [Example 188, 2-((3-chloro-6-(3-isopropylphenyl)-1-benzothiophen-2-yl)carbonyl)-2,5-diazaspiro[3.4]octan-6-one], for which the inhibition at 10 µM is 99%. `CC(C)c1ccccc1-c1ccc2c(Cl)c(C(=O)N3CC4(CCC(=O)N4)C3)sc2c1` [Example 189, 2-((3-chloro-6-(2-isopropylphenyl)-1-benzothiophen-2-yl)carbonyl)-2,5-diazaspiro[3.4]octan-6-one]: the inhibition at 10 µM is 100%. With `O=C1CCC2(CN(C(=O)c3sc4cc(-c5cccc(Cl)c5)ccc4c3Cl)C2)N1` [Example 190, 2-((3-chloro-6-(3-chlorophenyl)-1-benzothiophen-2-yl)carbonyl)-2,5-diazaspiro[3.4]octan-6-one], the inhibition at 10 µM is 99%. The value for `O=C1CCC2(CN(C(=O)c3sc4cc(-c5ccc(Cl)cc5)ccc4c3Cl)C2)N1` [Example 191, 2-((3-chloro-6-(4-chlorophenyl)-1-benzothiophen-2-yl)carbonyl)-2,5-diazaspiro[3.4]octan-6-one] was 97%; that for `O=C1CCC2(CN(C(=O)c3sc4cc(-c5ccccc5Cl)ccc4c3Cl)C2)N1` [Example 192, 2-((3-chloro-6-(2-chlorophenyl)-1-benzothiophen-2-yl)carbonyl)-2,5-diazaspiro[3.4]octan-6-one] was 100%; that for `COc1ccc(-c2ccc3c(Cl)c(C(=O)N4CC5(CCC(=O)N5)C4)sc3c2)cc1` [Example 193, 2-((3-chloro-6-(4-methoxyphenyl)-1-benzothiophen-2-yl)carbonyl)-2,5-diazaspiro[3.4]octan-6-one] was 100%. The value for `COc1cccc(-c2ccc3c(Cl)c(C(=O)N4CC5(CCC(=O)N5)C4)sc3c2)c1` [Example 194, 2-((3-chloro-6-(3-methoxyphenyl)-1-benzothiophen-2-yl)carbonyl)-2,5-diazaspiro[3.4]octan-6-one] was 100%; that for `COc1ccccc1-c1ccc2c(Cl)c(C(=O)N3CC4(CCC(=O)N4)C3)sc2c1` [Example 195, 2-((3-chloro-6-(2-methoxyphenyl)-1-benzothiophen-2-yl)carbonyl)-2,5-diazaspiro[3.4]octan-6-one] was 100%. The value for `O=C1CCC2(CN(C(=O)c3sc4cc(-c5cccc(C(F)(F)F)c5)ccc4c3Cl)C2)N1` [Example 196, 2-((3-chloro-6-(3-(trifluoromethyl)phenyl)-1-benzothiophen-2-yl)carbonyl)-2,5-diazaspiro[3.4]octan-6-one] was 99%. Take `O=C1CCC2(CN(C(=O)c3sc4cc(-c5ccc(C(F)(F)F)cc5)ccc4c3Cl)C2)N1` [Example 197, 2-((3-chloro-6-(4-(trifluoromethyl)phenyl)-1-benzothiophen-2-yl)carbonyl)-2,5-diazaspiro[3.4]octan-6-one]: the inhibition at 10 µM was 90%. To `O=C1CCC2(CN(C(=O)c3sc4cc(-c5ccccc5OC(F)(F)F)ccc4c3Cl)C2)N1` [Example 199, 2-((3-chloro-6-(2-(trifluoromethoxy)phenyl)-1-benzothiophen-2-yl)carbonyl)-2,5-diazaspiro[3.4]octan-6-one] belongs 100%; to `O=C1CCC2(CN(C(=O)c3sc4cc(-c5ccc(OC(F)(F)F)cc5)ccc4c3Cl)C2)N1` [Example 200, 2-((3-chloro-6-(4-(trifluoromethoxy)phenyl)-1-benzothiophen-2-yl)carbonyl)-2,5-diazaspiro[3.4]octan-6-one], 94%; to `O=C1CCC2(CN(C(=O)c3sc4cc(-c5cccc(OC(F)(F)F)c5)ccc4c3Cl)C2)N1` [Example 201, 2-((3-chloro-6-(3-(trifluoromethoxy)phenyl)-1-benzothiophen-2-yl)carbonyl)-2,5-diazaspiro[3.4]octan-6-one], 98%. The value for `Cc1ccc(F)c(-c2ccc3c(Cl)c(C(=O)N4CC5(CCC(=O)N5)C4)sc3c2)c1` [Example 202, 2-((3-chloro-6-(2-fluoro-5-methylphenyl)-1-benzothiophen-2-yl)carbonyl)-2,5-diazaspiro[3.4]octan-6-one] was 100%; that for `Cc1cccc(F)c1-c1ccc2c(Cl)c(C(=O)N3CC4(CCC(=O)N4)C3)sc2c1` [Example 203, 2-((3-chloro-6-(2-fluoro-6-methylphenyl)-1-benzothiophen-2-yl)carbonyl)-2,5-diazaspiro[3.4]octan-6-one] was 101%; that for `Cc1c(F)cccc1-c1ccc2c(Cl)c(C(=O)N3CC4(CCC(=O)N4)C3)sc2c1` [Example 204, 2-((3-chloro-6-(3-fluoro-2-methylphenyl)-1-benzothiophen-2-yl)carbonyl)-2,5-diazaspiro[3.4]octan-6-one] was 100%. As for `Cc1ccc(F)cc1-c1ccc2c(Cl)c(C(=O)N3CC4(CCC(=O)N4)C3)sc2c1` [Example 205, 2-((3-chloro-6-(5-fluoro-2-methylphenyl)-1-benzothiophen-2-yl)carbonyl)-2,5-diazaspiro[3.4]octan-6-one], the inhibition at 10 µM is 101%.

As for `Cc1ccc(-c2ccc3c(Cl)c(C(=O)N4CC5(CCC(=O)N5)C4)sc3c2)cc1F` [Example 206, 2-((3-chloro-6-(3-fluoro-4-methylphenyl)-1-benzothiophen-2-yl)carbonyl)-2,5-diazaspiro[3.4]octan-6-one], the inhibition at 10 µM is 96%. To `Cc1ccc(-c2ccc3c(Cl)c(C(=O)N4CC5(CCC(=O)N5)C4)sc3c2)c(F)c1` [Example 207, 2-((3-chloro-6-(2-fluoro-4-methylphenyl)-1-benzothiophen-2-yl)carbonyl)-2,5-diazaspiro[3.4]octan-6-one] belongs 99%. To `Cc1cccc(-c2ccc3c(Cl)c(C(=O)N4CC5(CCC(=O)N5)C4)sc3c2)c1F` [Example 208, 2-((3-chloro-6-(2-fluoro-3-methylphenyl)-1-benzothiophen-2-yl)carbonyl)-2,5-diazaspiro[3.4]octan-6-one] belongs 100%; to `Cc1cc(F)ccc1-c1ccc2c(Cl)c(C(=O)N3CC4(CCC(=O)N4)C3)sc2c1` [Example 209, 2-((3-chloro-6-(4-fluoro-2-methylphenyl)-1-benzothiophen-2-yl)carbonyl)-2,5-diazaspiro[3.4]octan-6-one], 99%.

For `Cc1cc(-c2ccc3c(Cl)c(C(=O)N4CC5(CCC(=O)N5)C4)sc3c2)ccc1F` [Example 210, 2-((3-chloro-6-(4-fluoro-3-methylphenyl)-1-benzothiophen-2-yl)carbonyl)-2,5-diazaspiro[3.4]octan-6-one], the inhibition at 10 µM was 101%. To `Cc1cc(F)cc(-c2ccc3c(Cl)c(C(=O)N4CC5(CCC(=O)N5)C4)sc3c2)c1` [Example 211, 2-((3-chloro-6-(3-fluoro-5-methylphenyl)-1-benzothiophen-2-yl)carbonyl)-2,5-diazaspiro[3.4]octan-6-one] belongs 99%.

Take `O=C1CCC2(CN(C(=O)c3sc4cc(-c5cc(F)ccc5F)ccc4c3Cl)C2)N1` [Example 212, 2-((3-chloro-6-(2,5-difluorophenyl)-1-benzothiophen-2-yl)carbonyl)-2,5-diazaspiro[3.4]octan-6-one]: the inhibition at 10 µM worked out at 100%.

For `O=C1CCC2(CN(C(=O)c3sc4cc(-c5c(F)cccc5F)ccc4c3Cl)C2)N1` [Example 213, 2-((3-chloro-6-(2,6-difluorophenyl)-1-benzothiophen-2-yl)carbonyl)-2,5-diazaspiro[3.4]octan-6-one], the inhibition at 10 µM was determined as 100%.

Turning to `O=C1CCC2(CN(C(=O)c3sc4cc(-c5cc(F)cc(F)c5)ccc4c3Cl)C2)N1` [Example 214, 2-((3-chloro-6-(3,5-difluorophenyl)-1-benzothiophen-2-yl)carbonyl)-2,5-diazaspiro[3.4]octan-6-one], the inhibition at 10 µM stood at 99%. To `O=C1CCC2(CN(C(=O)c3sc4cc(-c5cccc(F)c5F)ccc4c3Cl)C2)N1` [Example 215, 2-((3-chloro-6-(2,3-difluorophenyl)-1-benzothiophen-2-yl)carbonyl)-2,5-diazaspiro[3.4]octan-6-one] belongs 99%; to `O=C1CCC2(CN(C(=O)c3sc4cc(-c5ccc(F)c(F)c5)ccc4c3Cl)C2)N1` [Example 216, 2-((3-chloro-6-(3,4-difluorophenyl)-1-benzothiophen-2-yl)carbonyl)-2,5-diazaspiro[3.4]octan-6-one], 100%; to `O=C1CCC2(CN(C(=O)c3sc4cc(-c5ccc(C6CC6)cc5)ccc4c3Cl)C2)N1` [Example 217, 2-((3-chloro-6-(4-cyclopropylphenyl)-1-benzothiophen-2-yl)carbonyl)-2,5-diazaspiro[3.4]octan-6-one], 97%. To `O=C1CCC2(CN(C(=O)c3sc4cc(-c5cccc(C6CC6)c5)ccc4c3Cl)C2)N1` [Example 218, 2-((3-chloro-6-(3-cyclopropylphenyl)-1-benzothiophen-2-yl)carbonyl)-2,5-diazaspiro[3.4]octan-6-one] belongs 100%.
